From PubChem BioAssay (NCI)
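The compound was tested at five concentrations on cells cultured in 96-well plates, with a 48-hour exposure period. Definition used: TGI = concentration required for complete inhibition of growth.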

Legend:
Assay in all cases: NCI anticancer screen, dose series, 48 h
SK-MEL-2 melanoma = system: SK-MEL-2 melanoma
U251 CNS = system: U251 CNS
NCI-H460 lung = system: NCI-H460 lung
MALME-3M melanoma = system: MALME-3M melanoma
OVCAR-3 ovarian = system: OVCAR-3 ovarian
SF-539 CNS = system: SF-539 CNS
RXF 393 renal = system: RXF 393 renal
HL-60(TB) leukemia = system: HL-60(TB) leukemia
NCI/ADR-RES ovarian = system: NCI/ADR-RES ovarian
SF-295 CNS = system: SF-295 CNS
EKVX NSCLC = system: EKVX NSCLC
HOP-62 NSCLC = system: HOP-62 NSCLC
SK-OV-3 ovarian = system: SK-OV-3 ovarian
OVCAR-8 ovarian = system: OVCAR-8 ovarian
NCI-H226 lung = system: NCI-H226 lung
MOLT-4 leukemia = system: MOLT-4 leukemia
ACHN renal = system: ACHN renal
SR leukemia = system: SR leukemia
MDA-MB-231 breast = system: MDA-MB-231 breast
SF-268 CNS = system: SF-268 CNS
SK-MEL-5 melanoma = system: SK-MEL-5 melanoma
MDA-N = system: MDA-N
HT29 colon = system: HT29 colon
COLO 205 colon = system: COLO 205 colon
HCT-116 colon = system: HCT-116 colon
SN12C renal = system: SN12C renal
NCI-H23 lung = system: NCI-H23 lung
HS 578T breast = system: HS 578T breast
K-562 leukemia = system: K-562 leukemia
LOX IMVI melanoma = system: LOX IMVI melanoma
A498 renal = system: A498 renal
UO-31 renal = system: UO-31 renal
RPMI-8226 leukemia = system: RPMI-8226 leukemia
OVCAR-4 ovarian = system: OVCAR-4 ovarian
CCRF-CEM leukemia = system: CCRF-CEM leukemia
PC-3 prostate = system: PC-3 prostate
SK-MEL-28 melanoma = system: SK-MEL-28 melanoma
IGROV1 ovarian = system: IGROV1 ovarian
HOP-92 NSCLC = system: HOP-92 NSCLC
UACC-62 melanoma = system: UACC-62 melanoma
SNB-19 CNS = system: SNB-19 CNS
MDA-MB-435 = system: MDA-MB-435
MCF7 breast = system: MCF7 breast
CAKI-1 renal = system: CAKI-1 renal
786-0 renal = system: 786-0 renal
DU-145 prostate = system: DU-145 prostate
KM12 colon = system: KM12 colon
OVCAR-5 ovarian = system: OVCAR-5 ovarian
T-47D breast = system: T-47D breast
UACC-257 melanoma = system: UACC-257 melanoma
NCI-H522 lung = system: NCI-H522 lung
TK-10 renal = system: TK-10 renal
A549 NSCLC = system: A549 NSCLC
SNB-75 CNS = system: SNB-75 CNS
SW-620 colon = system: SW-620 colon
M14 melanoma = system: M14 melanoma
HCT-15 colon = system: HCT-15 colon
BT-549 breast = system: BT-549 breast
HCC-2998 colon = system: HCC-2998 colon

With `COc1ccc2cc(C(=O)CCC(=O)O)ccc2c1` the TGI (SK-MEL-2 melanoma) was > 100 µM, the TGI (U251 CNS) was > 100 µM and the TGI (NCI-H460 lung) was > 100 µM. The TGI (MALME-3M melanoma) was > 100 µM, the TGI (OVCAR-3 ovarian) was > 100 µM and the TGI (SF-539 CNS) was > 100 µM. The TGI (RXF 393 renal) was > 100 µM, the TGI (HL-60(TB) leukemia) was > 100 µM and the TGI (NCI/ADR-RES ovarian) was > 100 µM. The TGI (SF-295 CNS) was > 100 µM, the TGI (EKVX NSCLC) was > 100 µM and the TGI (HOP-62 NSCLC) was > 100 µM. The TGI (SK-OV-3 ovarian) was > 100 µM, the TGI (OVCAR-8 ovarian) was > 100 µM and the TGI (NCI-H226 lung) was > 100 µM. For the same molecule, the TGI (MOLT-4 leukemia) was > 100 µM, the TGI (ACHN renal) was > 100 µM and the TGI (SR leukemia) was > 100 µM. The TGI (MDA-MB-231 breast) was > 100 µM, the TGI (SF-268 CNS) was > 100 µM and the TGI (SK-MEL-5 melanoma) was > 100 µM. For the same molecule, the TGI (MDA-N) was > 100 µM, the TGI (HT29 colon) was > 100 µM and the TGI (COLO 205 colon) was > 100 µM. The TGI (HCT-116 colon) was > 100 µM, the TGI (SN12C renal) was > 100 µM and the TGI (NCI-H23 lung) was > 100 µM. For the same molecule, the TGI (HS 578T breast) was > 100 µM, the TGI (K-562 leukemia) was > 100 µM and the TGI (LOX IMVI melanoma) was > 100 µM. The TGI (A498 renal) was > 100 µM, the TGI (UO-31 renal) was > 100 µM and the TGI (RPMI-8226 leukemia) was > 100 µM. For the same molecule, the TGI (OVCAR-4 ovarian) was > 100 µM, the TGI (CCRF-CEM leukemia) was > 100 µM and the TGI (PC-3 prostate) was > 100 µM. For the same molecule, the TGI (SK-MEL-28 melanoma) was > 100 µM, the TGI (IGROV1 ovarian) was > 100 µM and the TGI (HOP-92 NSCLC) was > 100 µM. For the same molecule, the TGI (UACC-62 melanoma) was > 100 µM, the TGI (SNB-19 CNS) was > 100 µM and the TGI (MDA-MB-435) was > 100 µM. The TGI (MCF7 breast) was > 100 µM, the TGI (CAKI-1 renal) was > 100 µM and the TGI (786-0 renal) was > 100 µM. For the same molecule, the TGI (DU-145 prostate) was > 100 µM, the TGI (KM12 colon) was > 100 µM and the TGI (OVCAR-5 ovarian) was > 100 µM. For the same molecule, the TGI (T-47D breast) was > 100 µM, the TGI (UACC-257 melanoma) was > 100 µM and the TGI (NCI-H522 lung) was > 100 µM. For the same molecule, the TGI (TK-10 renal) was > 100 µM, the TGI (A549 NSCLC) was > 100 µM and the TGI (SNB-75 CNS) was > 100 µM. For the same molecule, the TGI (SW-620 colon) was > 100 µM, the TGI (M14 melanoma) was > 100 µM and the TGI (HCT-15 colon) was > 100 µM. For the same molecule, the TGI (BT-549 breast) was > 100 µM.
For `O=C(N=Nc1c(O)[nH]c2ccccc12)C(O)(c1ccccc1)c1ccccc1`, the TGI (SK-MEL-2 melanoma) was 31.8 µM, the TGI (U251 CNS) was 35.3 µM and the TGI (NCI-H460 lung) was 34.7 µM. It also gave a TGI (MALME-3M melanoma) of 46.5 µM, a TGI (OVCAR-3 ovarian) of 36.3 µM and a TGI (SF-539 CNS) of 29.6 µM. The TGI (RXF 393 renal) was 28.3 µM, the TGI (HL-60(TB) leukemia) was 69 µM and the TGI (NCI/ADR-RES ovarian) was 84.6 µM. For the same molecule, the TGI (SF-295 CNS) was 36.3 µM, the TGI (EKVX NSCLC) was > 100 µM and the TGI (SK-OV-3 ovarian) was 56.6 µM. The TGI (OVCAR-8 ovarian) was 67.3 µM, the TGI (NCI-H226 lung) was 43.8 µM and the TGI (MOLT-4 leukemia) was > 100 µM. The TGI (ACHN renal) was > 100 µM, the TGI (SR leukemia) was 79.4 µM and the TGI (MDA-MB-231 breast) was 35.5 µM. The TGI (SF-268 CNS) was 87.9 µM, the TGI (SK-MEL-5 melanoma) was 29.7 µM and the TGI (MDA-N) was 34 µM. For the same molecule, the TGI (HT29 colon) was 37.2 µM, the TGI (COLO 205 colon) was 33.3 µM and the TGI (HCT-116 colon) was 37.5 µM. The TGI (NCI-H23 lung) was 30.1 µM, the TGI (HS 578T breast) was 66.6 µM and the TGI (K-562 leukemia) was 89.8 µM. For the same molecule, the TGI (LOX IMVI melanoma) was 31.4 µM, the TGI (A498 renal) was 36 µM and the TGI (UO-31 renal) was 29.8 µM. For the same molecule, the TGI (RPMI-8226 leukemia) was 62 µM, the TGI (OVCAR-4 ovarian) was 50.9 µM and the TGI (CCRF-CEM leukemia) was > 100 µM. It also gave a TGI (HCC-2998 colon) of 27.9 µM, a TGI (PC-3 prostate) of 38.5 µM and a TGI (SK-MEL-28 melanoma) of 33.9 µM. It also gave a TGI (IGROV1 ovarian) of 39.6 µM, a TGI (HOP-92 NSCLC) of 49.7 µM and a TGI (UACC-62 melanoma) of 30.1 µM. The TGI (SNB-19 CNS) was 34.2 µM, the TGI (MDA-MB-435) was 31.8 µM and the TGI (MCF7 breast) was 56.4 µM. The TGI (CAKI-1 renal) was > 100 µM, the TGI (786-0 renal) was > 100 µM and the TGI (DU-145 prostate) was 73.9 µM. It also gave a TGI (KM12 colon) of 35.4 µM, a TGI (OVCAR-5 ovarian) of 31.5 µM and a TGI (T-47D breast) of 68.8 µM. For the same molecule, the TGI (UACC-257 melanoma) was 56.3 µM, the TGI (TK-10 renal) was 99.3 µM and the TGI (A549 NSCLC) was 42.1 µM. The TGI (SNB-75 CNS) was 43.6 µM, the TGI (SW-620 colon) was 34 µM and the TGI (M14 melanoma) was 30.4 µM. The TGI (HCT-15 colon) was 30.3 µM and the TGI (BT-549 breast) was 28.9 µM.
